Source: patent US20260201008A1, “SECRETIN-DERIVED GLP1R SELECTIVE AGONISTS” (GUBRA A/S, priority 2023, published 2026)
Read-outs that look alike come from different tables or passages of the source. Numbered stars: 1 amine (or outer) side, 2 acyl side, 3 side chain; on linkers, the order of the positions; unused ones are H or OH. Square brackets hold non-standard residues; d marks the D form. Side chains are listed from the residue outwards. Peptide text beside a SMILES is read from it. * marks the point of attachment. C20 diacid = O=C(O)CCCCCCCCCCCCCCCCCCC(=O)*; γGlu = O=C(O)[C@H](CCC(=O)[*:2])N[*:1]; AEEA = NCCOCCOCC(=O)O; Aib = CC(C)(N)C(=O)O

Experiments:
[1] = Turbidity of crude library peptides (absorbance at 600 nm); format: physicochemical; conditions: Physical stability of peptides
Method in brief: (§1)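 Fibril formation is scored as average ThT fluorescence from duplicate samples monitored for 72 h at 40° C with shaking stress. Turbidity is the absorbance at 600 nm taken before heating. Peptide concentration was 267 μM at pH 4.0 or pH 7.0.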

[2] = Fibril formation of crude library peptides (Thioflavin T); format: physicochemical; design: key: average ThT fluorescence emission at 480 nm (ex 450 nm), raw units; conditions: Physical stability of peptides
Method in brief: as §1

GLP1R = GLP1R (Homo sapiens, UniProt P43220); test: hGLP1R potency, cAMP accumulation in CHO-K1 cells stably overexpressing hGLP1R; format: cell-based; design: host or cells: CHO-K1; conditions: for EC50: cAMP accumulation, CHO-K1 cells overexpressing hGLP1R; for SCTR EC50/GLP1R EC50 ratio: selectivity for hGLP1R over hSCTR, cAMP accumulation in CHO-K1 cells; for Selectivity: SCTR EC50/GLP1R EC50 ratio
Method in brief: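 In the presence of 0.5 mM IBMX, compounds stimulated the cells for 30 minutes at room temperature. Accumulated cAMP was then detected by TR-FRET, with EC50 values fitted by variable-slope nonlinear regression.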

SCTR = SCTR (Homo sapiens, UniProt P47872); test: hSCTR potency, cAMP accumulation in CHO-K1 cells stably overexpressing hSCTR; format: cell-based; design: alternatively Euroscreen ES-712-AF; FAST-0161L; host or cells: CHO-K1; conditions: cAMP accumulation, CHO-K1 cells overexpressing hSCTR
Method in brief: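 In this Gs cAMP assay, stably transfected CHO-K1 hSCTR cells were stimulated at room temperature for 30 min in IBMX-containing buffer. Time-resolved FRET gave the signal. Replicates were increased when the top concentration changed or EC50 values differed 5-fold.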

[3] = read-out: hGLP1R pEC50 (converted)
[4] = read-out: hSCTR pEC50 (converted)
[5] = read-out: pEC50 hGLPR1 (converted)
[6] = read-out: pEC50 hSCTR (converted)

Sequence of SCTR (P47872 23-440): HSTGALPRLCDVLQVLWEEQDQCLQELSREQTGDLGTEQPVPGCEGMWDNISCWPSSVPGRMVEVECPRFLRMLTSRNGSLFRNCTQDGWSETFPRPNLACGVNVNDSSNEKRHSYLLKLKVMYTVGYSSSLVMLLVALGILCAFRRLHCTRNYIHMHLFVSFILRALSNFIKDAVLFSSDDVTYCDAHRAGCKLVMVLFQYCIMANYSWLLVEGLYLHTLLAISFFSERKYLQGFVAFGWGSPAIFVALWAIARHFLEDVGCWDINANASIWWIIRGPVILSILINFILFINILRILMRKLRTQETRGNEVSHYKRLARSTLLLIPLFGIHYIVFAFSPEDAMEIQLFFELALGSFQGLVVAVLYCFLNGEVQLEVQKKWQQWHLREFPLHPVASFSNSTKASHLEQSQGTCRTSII
Sequence of GLP1R (P43220 24-463): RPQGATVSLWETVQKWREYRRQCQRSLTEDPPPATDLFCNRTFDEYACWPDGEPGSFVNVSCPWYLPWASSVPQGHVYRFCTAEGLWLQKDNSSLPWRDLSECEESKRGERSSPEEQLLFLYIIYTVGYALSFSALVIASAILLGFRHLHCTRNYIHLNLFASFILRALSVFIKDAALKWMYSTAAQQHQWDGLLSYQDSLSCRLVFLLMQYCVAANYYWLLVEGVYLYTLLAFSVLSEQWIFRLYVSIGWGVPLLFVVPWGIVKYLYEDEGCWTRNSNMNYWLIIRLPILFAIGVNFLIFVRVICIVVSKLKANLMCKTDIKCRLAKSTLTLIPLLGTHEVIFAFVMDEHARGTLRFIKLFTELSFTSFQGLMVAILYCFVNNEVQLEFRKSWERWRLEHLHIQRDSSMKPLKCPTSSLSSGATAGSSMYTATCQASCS

Turbidity (pH 7) [1] | Fibril formation [2] | EC50 (GLP1R; [3]) | SCTR EC50/GLP1R EC50 ratio (GLP1R) | EC50 (SCTR; [4]) | Selectivity (GLP1R) | EC50 (GLP1R; [5]) | EC50 (SCTR; [6]) | Compound
0.08 | 13795 | – | – | – | 4851 | 0.0158 nM | 79.4 nM | CC(C)C[C@H](NC(=O)[C@H](CCC(=O)O)NC(=O)[C@H](CCCCNC(=O)COCCOCCNC(=O)COCCOCCNC(=O)CC[C@H](NC(=O)CCCCCCCCCCCCCCCCCCC(=O)O)C(=O)O)NC(=O)[C@H](CC(C)C)NC(=O)[C@H](CCCNC(=N)N)NC(=O)[C@H](CO)NC(=O)[C@@H](NC(=O)[C@H](CC(=O)O)NC(=O)[C@H](CO)NC(=O)[C@@H](NC(=O)[C@H](Cc1ccccc1)NC(=O)[C@@H](NC(=O)CNC(=O)[C@H](CCC(=O)O)NC(=O)C(C)(C)NC(=O)[C@@H](N)Cc1c[nH]cn1)[C@@H](C)O)[C@@H](C)O)C(C)C)C(=O)N[C@@H](C)C(=O)N[C@@H](C)C(=O)N[C@@H](CCC(N)=O)C(=O)N[C@@H](CCC(N)=O)C(=O)N[C@@H](CCCNC(=N)N)C(=O)N[C@@H](Cc1ccccc1)C(=O)N[C@@H](CC(C)C)C(=O)N[C@@H](CCC(=O)O)C(=O)N[C@@H](Cc1c[nH]cn1)C(=O)N[C@@H](CC(C)C)C(=O)N[C@H](C(N)=O)C(C)C [compound 3] (H-H[Aib]EGTFTSDVSRLK([AEEA-AEEA-γGlu-C20 diacid])ELAAQQRFLEHLV-NH2)
0.09 | 12284 | – | – | – | 3425 | 0.0158 nM | 50.1 nM | CC(C)C[C@H](NC(=O)[C@H](Cc1ccccc1)NC(=O)[C@H](CCCNC(=N)N)NC(=O)[C@H](CCC(N)=O)NC(=O)[C@@H](NC(=O)[C@H](C)NC(=O)[C@H](C)NC(=O)C(C)(C)NC(=O)[C@H](CCC(=O)O)NC(=O)[C@H](CCCCNC(=O)COCCOCCNC(=O)COCCOCCNC(=O)CC[C@H](NC(=O)CCCCCCCCCCCCCCCCCCC(=O)O)C(=O)O)NC(=O)[C@H](CC(C)C)NC(=O)[C@H](CCCNC(=N)N)NC(=O)[C@H](CO)NC(=O)[C@@H](NC(=O)[C@H](CC(=O)O)NC(=O)[C@H](CO)NC(=O)[C@@H](NC(=O)[C@H](Cc1ccccc1)NC(=O)[C@@H](NC(=O)CNC(=O)[C@H](CCC(=O)O)NC(=O)C(C)(C)NC(=O)[C@@H](N)Cc1c[nH]cn1)[C@@H](C)O)[C@@H](C)O)C(C)C)[C@@H](C)O)C(=O)N[C@@H](CCC(=O)O)C(=O)N[C@@H](Cc1c[nH]cn1)C(=O)N[C@@H](CC(C)C)C(=O)N[C@H](C(N)=O)C(C)C [compound 50] (H-H[Aib]EGTFTSDVSRLK([AEEA-AEEA-γGlu-C20 diacid])E[Aib]AATQRFLEHLV-NH2)
0.08 | 4018 | 0.00631 nM | 16446 | 100 nM | – | – | – | CC(C)C[C@H](NC(=O)CNC(=O)[C@H](CO)NC(=O)[C@@H](NC(=O)[C@H](CC(=O)O)NC(=O)[C@H](CO)NC(=O)[C@@H](NC(=O)[C@H](Cc1ccccc1)NC(=O)[C@@H](NC(=O)CNC(=O)[C@H](CCC(=O)O)NC(=O)C(C)(C)NC(=O)[C@@H](N)Cc1c[nH]cn1)[C@@H](C)O)[C@@H](C)O)C(C)C)C(=O)N[C@@H](CCCCNC(=O)COCCOCCNC(=O)COCCOCCNC(=O)CC[C@H](NC(=O)CCCCCCCCCCCCCCCCCCC(=O)O)C(=O)O)C(=O)N[C@@H](CCC(=O)O)C(=O)N[C@@H](CCC(=O)O)C(=O)N[C@@H](C)C(=O)NC(C)(C)C(=O)N[C@@H](CC(C)C)C(=O)N[C@@H](CCC(N)=O)C(=O)N[C@@H](CCCNC(=N)N)C(=O)N[C@@H](Cc1ccccc1)C(=O)N[C@@H](CC(C)C)C(=O)N[C@@H](CCC(=O)O)C(=O)N[C@@H](Cc1c[nH]cn1)C(=O)N[C@@H](CC(C)C)C(=O)N[C@H](C(N)=O)C(C)C [compound 167] (H-H[Aib]EGTFTSDVSGLK([AEEA-AEEA-γGlu-C20 diacid])EEA[Aib]LQRFLEHLV-NH2)

Continued, compound first:

Compound | Turbidity (pH 7) [1] | Fibril formation [2] | EC50 (GLP1R; [3]) | SCTR EC50/GLP1R EC50 ratio (GLP1R) | EC50 (SCTR; [4]) | Selectivity (GLP1R) | EC50 (GLP1R; [5]) | EC50 (SCTR; [6])
CC(C)C[C@H](NC(=O)[C@H](Cc1ccccc1)NC(=O)[C@H](CCCNC(=N)N)NC(=O)[C@H](CCC(N)=O)NC(=O)[C@H](CC(C)C)NC(=O)C(C)(C)NC(=O)[C@H](C)NC(=O)[C@H](CCC(=O)O)NC(=O)[C@H](CCC(=O)O)NC(=O)[C@H](Cc1c[nH]cn1)NC(=O)[C@H](CC(C)C)NC(=O)[C@H](Cc1ccc(O)cc1)NC(=O)[C@H](CO)NC(=O)[C@@H](NC(=O)[C@H](CC(=O)O)NC(=O)[C@H](CO)NC(=O)[C@@H](NC(=O)[C@H](Cc1ccccc1)NC(=O)[C@@H](NC(=O)CNC(=O)[C@H](CCC(=O)O)NC(=O)C(C)(C)NC(=O)[C@@H](N)Cc1c[nH]cn1)[C@@H](C)O)[C@@H](C)O)C(C)C)C(=O)N[C@@H](CCC(=O)O)C(=O)N[C@@H](CCCCNC(=O)COCCOCCNC(=O)COCCOCCNC(=O)CC[C@H](NC(=O)CCCCCCCCCCCCCCCCCCC(=O)O)C(=O)O)C(=O)N[C@@H](CC(C)C)C(=O)N[C@H](C(N)=O)C(C)C [compound 164] (H-H[Aib]EGTFTSDVSYLHEEA[Aib]LQRFLEK([AEEA-AEEA-γGlu-C20 diacid])LV-NH2) | 0.08 | 4789 | 0.02 nM | 11362 | 251 nM | – | – | –
CC(C)C[C@H](NC(=O)[C@H](Cc1ccccc1)NC(=O)[C@H](CCCNC(=N)N)NC(=O)[C@H](CCC(N)=O)NC(=O)C(C)(C)NC(=O)[C@H](C)NC(=O)[C@H](C)NC(=O)[C@H](Cc1ccccc1)NC(=O)[C@H](CCC(=O)O)NC(=O)[C@H](CCCCNC(=O)COCCOCCNC(=O)COCCOCCNC(=O)CC[C@H](NC(=O)CCCCCCCCCCCCCCCCCCC(=O)O)C(=O)O)NC(=O)[C@H](CC(C)C)NC(=O)[C@H](Cc1ccccc1)NC(=O)[C@H](CO)NC(=O)[C@@H](NC(=O)[C@H](CC(=O)O)NC(=O)[C@H](CO)NC(=O)[C@@H](NC(=O)[C@H](Cc1ccccc1)NC(=O)[C@@H](NC(=O)CNC(=O)[C@H](CCC(=O)O)NC(=O)C(C)(C)NC(=O)[C@@H](N)Cc1c[nH]cn1)[C@@H](C)O)[C@@H](C)O)C(C)C)C(=O)N[C@@H](CCC(=O)O)C(=O)N[C@@H](Cc1c[nH]cn1)C(=O)N[C@@H](CC(C)C)C(=O)N[C@H](C(N)=O)C(C)C [compound 27] (H-H[Aib]EGTFTSDVSFLK([AEEA-AEEA-γGlu-C20 diacid])EFAA[Aib]QRFLEHLV-NH2) | 0.09 | 16757 | – | – | – | 33159 | 0.1 nM | 3160 nM
CC(C)C[C@H](NC(=O)[C@H](Cc1ccccc1)NC(=O)[C@H](CCCNC(=N)N)NC(=O)[C@H](CCC(N)=O)NC(=O)[C@H](CO)NC(=O)[C@H](C)NC(=O)[C@H](C)NC(=O)[C@H](CCC(=O)O)NC(=O)[C@H](CCC(=O)O)NC(=O)[C@H](CCCCNC(=O)COCCOCCNC(=O)COCCOCCNC(=O)CC[C@H](NC(=O)CCCCCCCCCCCCCCCCCCC(=O)O)C(=O)O)NC(=O)[C@H](CC(C)C)NC(=O)[C@H](CCC(=O)O)NC(=O)[C@H](CO)NC(=O)[C@@H](NC(=O)[C@H](CC(=O)O)NC(=O)[C@H](CO)NC(=O)[C@@H](NC(=O)[C@H](Cc1ccccc1)NC(=O)[C@@H](NC(=O)CNC(=O)[C@H](CCC(=O)O)NC(=O)C(C)(C)NC(=O)[C@@H](N)Cc1c[nH]cn1)[C@@H](C)O)[C@@H](C)O)C(C)C)C(=O)N[C@@H](CCC(=O)O)C(=O)N[C@@H](Cc1c[nH]cn1)C(=O)N[C@@H](CC(C)C)C(=O)N[C@H](C(N)=O)C(C)C [compound 87] (H-H[Aib]EGTFTSDVSELK([AEEA-AEEA-γGlu-C20 diacid])EEAASQRFLEHLV-NH2) | 0.08 | 7811 | 0.0398 nM | 39811 | 1580 nM | – | – | –
CC[C@H](C)[C@H](NC(=O)[C@H](Cc1ccccc1)NC(=O)[C@H](CCCNC(=N)N)NC(=O)[C@H](CCC(N)=O)NC(=O)[C@H](CC(C)C)NC(=O)[C@H](C)NC(=O)[C@H](C)NC(=O)CNC(=O)[C@H](CCC(=O)O)NC(=O)[C@H](CC(C)C)NC(=O)[C@H](CC(C)C)NC(=O)[C@H](Cc1ccccc1)NC(=O)[C@H](CO)NC(=O)C(C)(C)NC(=O)[C@H](CC(=O)O)NC(=O)[C@H](CO)NC(=O)[C@@H](NC(=O)[C@H](Cc1ccccc1)NC(=O)[C@@H](NC(=O)CNC(=O)[C@H](CCC(=O)O)NC(=O)C(C)(C)NC(=O)[C@@H](N)Cc1c[nH]cn1)[C@@H](C)O)[C@@H](C)O)C(=O)N[C@@H](CCC(N)=O)C(=O)N[C@@H](Cc1c[nH]c2ccccc12)C(=O)N[C@@H](CC(C)C)C(=O)N[C@H](C(N)=O)C(C)C [compound 111] (H-H[Aib]EGTFTSD[Aib]SFLLEGAALQRFIQWLV-NH2) | 0.24 | 26712 | 0.0316 nM | 70974 | 2000 nM | – | – | –
